For one series, the system named is HCV replicon. As to the kind of experiment: HCV replication suppressive activity test (replicon assay, luciferase). It is filed as cell-based, Hepatitis C virus. The conditions noted are these: for HCV replication suppressive (inhibitory) activity, in words: replicon cell assay. The method, then: The HCV-replicon cell line was established by transducing sub-genomic RNA into human hepatoma Huh-7 cell cytoplasm. The sub-genomic RNA was prepared by replacing the translated region of HCV genome RNA structural proteins with firefly luciferase gene, internal ribosome entry site (IRES) of the encephalomyocarditis virus and neomycin phosphotransferase gene. The cell line obtained was used for assessment of production of HCV replicon RNA. The production quantity of HCV replicon RNA was measured by the luciferase assay method. (Lohmann et al., Science 285, (1999) 110; Sakamoto et al. Nat. Chem. Biol. 1, (2005) 333)
In order to determine replication quantity of HCV-RNA, luciferase genes from firefly were transduced into HCV-RNA as a reporter gene. The gene transduction was carried out according to the method of Krieger et al. (See; Krieger et al. J. virol. 75, (2001) 4614) in such manner that luciferase genes were fused together neomycin-resistant genes beneath the IRES of HCV gene.
With this HCV subgenome, the replication efficiency of HCV could be estimated by measuring luciferase activity in the HCV replicon cells. The HCV replicon cells used were routinely grown in DMEM (Gibco cat. No. 10569-010) supplemented with Glutamax (Invitrogen), 10% fetal bovine serum (FBS), 1% penicillin/streptomycin (Invitrogen) and 500 μg/ml G418 (Invitrogen). The cells were maintained at 37° C. in humidified atmosphere containing 5% CO2. For the HCV replication assay, the replicon cells in DMEM supplemented with Glutamax and 5% FBS were seeded in a 96-well plate so as to fill every well with 5000 cells, and incubated for 24 hours.
The test was carried out in such a way that the HCV replicon cells were cultured for 72 hours after adding test samples in different concentrations. The Quantity of the luciferase activity was determined by the Steady-Glo Luciferase Assay System (Promega) according to the manufacture's instructions and the luminescence was measured by DTX 800 Multimode Detector (Beckman). In this test, the replication inhibitory activity is expressed as a concentration of samples required for inhibiting 50 percents of the replication of HCV replicon cell (IC50). Specific activity is a reciprocal number of IC50 (1/IC50). Total activity is calculated by multiplying the yield weight of the HCV replicon cell by specific activity.

For series [1], the system named is HCV replicon cells (human hepatoma Huh-7). In words: Cytotoxicity test (Cell Counting Kit-8). The following applies: Table 1. It is filed as cell-based. The method, then:
(§1) The cytotoxicity of the samples was measured by Cell Counting Kit-8 (CCK-8; Dojindo Molecular Technologies) according to the manufacture's instructions. Briefly, 10 μl/a well of CCK-8 reagent were added to the HCV replicon cells cultured in a 96-well plate and then incubated at 37° C. for 60 min. The absorbance of each well was measured at 450 nm with a reference wavelength at 650 nm using an Emax Precision microplate reader (Molecular Devices Inc.). Cell viability was calculated as relative index of control cells and effects of samples and was expressed as the concentration of samples required for 50% cytotoxicity of the cells (CC50).
Background: Tetrazolium assays rely on reduction of a dye to a coloured formazan, in cell work by metabolically active cells.

A short description of series [2]: Cytotoxicity test (Cell Counting Kit-8). It is filed as cell-based, human. The following applies: human; HCV replicon cells; Table 1. The method, then: as §1
The mark [3] stands for this setting: HCV replicon cells, 72 hours, Table 1.

In brackets after ≈: the same amount, converted by molar mass.

Consider `O=C(/C=C/c1ccc(O)c(O)c1)O[C@@H]1C[C@](O)(C(=O)O)C[C@@H](O)[C@H]1O` [chlorogenic acid], for which the “HCV replication suppressive (inhibitory) activity, in words” value in the series on HCV replicon is recorded as “seem not to have the inhibition activity”.

For `Oc1cc(O)c2c(c1)O[C@H](c1ccc(O)c(O)c1)[C@H](O)[C@H]2c1c(O)cc(O)c2c1O[C@H](c1ccc(O)c(O)c1)[C@H](O)C2` [Procyanidin B2], the “Replication suppressive activity IC50” value on HCV replicon (setting [3]) was greater than 25.0 µg/mL. The “HCV replication suppressive (inhibitory) activity, in words” value in the series with HCV replicon was “no anti-HCV production activity”. For the same compound, the “Cytotoxicity CC50” value in series [1] is greater than 25.0 µg/mL.

For the compound `Oc1cc(O)c2c(c1)O[C@H](c1ccc(O)c(O)c1)[C@H](O)C2` [Epicatechin], the IC50 with HCV replicon (Hepatitis C virus, HCV replicon cells, 72 hours, Table 1) was 27.3 µg/mL (≈ 94.1 µM). Further, the “Ratio CC50/IC50” value with HCV replicon (Table 1) was determined as 4.2. The CC50 in series [2] stood at 114 µg/mL (≈ 392 µM).

For the compound Catechin, the “Replication suppressive activity IC50” value on HCV replicon (setting [3]) turned out to be 16.18 µg/mL. Moreover, the “Ratio CC50/IC50” value with HCV replicon (Table 1) is 6.2. Moreover, the “HCV replication suppressive (inhibitory) activity, in words” value in the series with HCV replicon was “no anti-HCV production activity”.

Broadly, the IC50 is the concentration at which inhibition is half-maximal. Higher therefore signals lower potency. For orientation: CC50 means the concentration that lowers cell viability or growth by half.
